Measured values from US20060189590A1, “Alkaline salts of proton pump inhibitors” (priority 2003, published 2006).

Key:
Type in all cases: physicochemical
[1] = Storage stability at 70° C. for one week (discolouration, decomposition); settings: for stability, discolouration and decomposition on storage: 70° C., one week, identical conditions for both salts
[2] = Storage stability under atmospheric conditions at 60-70° C. (by-products, HPLC purity)
Excerpt: The compounds according to the invention and their hydrates can be used for the treatment and prevention of all disorders, which can be treated or prevented by using PPI. In particular, the compounds according to the invention and their hydrates can be used for treating gastric disorders. In this context particular mention should be made of the relatively high stability of compounds according to the invention and their hydrates. […] This relatively high storage stability makes the compounds according to the invention and their hydrates particularly suitable for use in medicaments.

[3] = Dissolution compared with racemic pantoprazole magnesium dihydrate

| SMILES | stability, discolouration and decomposition on storage [1] | stability properties / stable storage form (general statement) ([1]; compared to the sodium salt of (−)-pantoprazole) | purity (according to HPLC) before storage ([2]; start value) [%] | purity (according to HPLC) after storage ([2]; storage under atmospheric conditions at 60-70° C.) | dissolution [3] | sum of by-products on storage ([2]; storage under atmospheric conditions, 60-70° C.) |
| --- | --- | --- | --- | --- | --- | --- |
| COc1ccnc(C[S+]([O-])c2nc3cc(OC(F)F)ccc3[n-]2)c1OC.[Na+] (single isomer, unassigned; (-)) [(−)-pantoprazole sodium] | changes to brown, with formation of considerable amounts of decomposition products | does not form a stable storage form | 99.5 | 96-97% | – | – |
| COc1ccnc(C[S+]([O-])c2nc3cc(OC(F)F)ccc3[n-]2)c1OC.O.[Mg+2].[OH-] (stereo not drawn) [Example 2, Magnesium (−)-{[5-(difluoromethoxy)]-2-[(3,4-dimethoxy-2-pyridinyl)methylsulphinyl]-1H-benzimidazolide}hydroxy monohydrate] | completely stable for one week and shows virtually no discolouration or decomposition | – | – | – | faster dissolution than the racemic pantoprazole magnesium dihydrate | remains virtually constant |
